Experimental data as given in patent US20220154192A1, “SYSTEM AND METHOD FOR LIGHT-REGULATED OLIGOMERIZATION AND PHASE SEPARATION OF FOLDED DOMAINS AND RNA GRANULE-ASSOCIATED PROTEIN DOMAINS FOR DRUG- BASED SCREENING APPLICATIONS” (The Trustees of Princeton University, priority 2019, published 2022).
Entries after “also recorded” stand apart in the source; their conditions may differ. *1 amine or outer side, *2 acyl side, *3 side chain or, on linkers, in order; H or OH if unused. Where a SMILES comes first, the peptide text is derived from it. Bridges are numbered along the chain shown (N, C = ends). Roman numbers before positions name the chains, in order. [ ]: non-standard residue; d: D form. Actinocin(9to1) = Cc1c2oc3c(C)ccc(C(=O)[*:1])c3nc-2c(C(=O)[*:2])c(N)c1=O; NMeV = CN[C@H](C(=O)O)C(C)C; Sar = CNCC(=O)O

Columns and labels:
[1] = system: stress granule formation in G3BP KO U2OS cells; assay: G3BP rescue / rescue competition of stress granule formation in G3BP KO U2OS cells; format: cell-based, human; settings: for rescue of stress granule formation in G3BP KO cells: expressed protein in G3BP KO cells
Procedure: For G3BP rescue competition experiments, an identical arrayed lentivirus approach was used as described in Phase diagram data collection (i.e. 2-60 μL G3BPmCherry and 2-60 μL mGFP-ORF, arrayed 4-wells by 4-wells for 16-wells total of a 96-well plate). G3BP KO cells were plated into lentivirus then combined and passaged 72-hours later.
Live cell confocal microscopy was performed on Day 5 post-transduction. For each condition (GFP-tagged protein of interest), 4 separate experiments (each experiment=1-well/arsenite treatment) were performed on three separate days with numerous technical replicates (fields of view). Live confocal imaging was performed 1-2 hours following arsenite treatment. mCherry and mGFP concentrations were determined similarly as for phase diagrams and manual scoring of stress granule absence or presence was performed. Similar protocols were used to assess rescue in the absence of competition.
The concentration of each cell was determined via manual image segmentation as previously described and absence or presence of stress granules was annotated. To determine a boundary from the data, a support vector machine (SVM) trained using the concentrations of the two components as explanatory variables and the categorical stress granule state as a response variable by applying the fitcsvm( ) function in the MATLAB Statistics and Machine Learning package using the default solver. Briefly, a support vector machine constructs a linear decision surface based on boundary points (‘support vectors’), with the assumption that the data is linearly separable. […]
For each experiment, the concentration of the protein of interest was determined for each cell, and the presence of stress granules was categorized. […] Specifically, the probability density was calculated by binning the concentration distribution using a square root number rule. Within each bin, the probability of having stress granules was calculated as the number of cells with stress granules over the total number of cells in that bin. […]

[2] = system: stress granules; assay: Arsenite-induced stress granule formation time course; format: cell-based, human; settings: arsenite 400 μM
Procedure: (§1) Cell treatment with arsenite to dissociate polysomes Cells were treated by adding sodium arsenite to cell media at a concentration of 400 μM, which is in excess of saturating concentrations for polysome disassembly (Kedersha et al., 2016). […] Inhibition of polysome disassembly by pre-treating with cycloheximide was added to a final concentration of 100 μg/mL (G3BP KO cells expressing indicated fluorescent fusion proteins). Following 30-minutes of incubation, arsenite was added at a concentration of 400 μM. 1-hour later, cells were assessed for formation of stress granules (GFP-G3BP rescue) or activation cycles were performed (Corelets).

[3] = system: opto-SGs (optogenetic stress granules) of G3BP ΔNTF2 Corelets in U2OS cells; assay: G3BP ΔNTF2 Corelet opto-SG intracellular phase diagram; format: cell-based, human
Text: To quantitatively interrogate the relationship between RBD valence and the threshold protein complex concentration for stress granule formation, the Corelet system described previously (the cores are comprised of a 24-mer ferritin complex coated by iLID molecules, which serves as an oligomerization platform mediated by blue light-stimulated sspB-iLID interactions, where the sspB-iLID is fused to the IDR regions and RBDs of G3BP) can be utilized to quantitatively map valence and concentration-dependent phase diagrams.
Pre-activation and post-activation images of G3BP KO cells stably expressing the indicated fusion proteins were captured with the mCherry (560) channel only to visualize the sspB component without triggering light-induced dimerization with the iLID-mGFP tagged Ferritin core. Cells were activated with a 488-laser using 1% laser power to cause dimerization of iLID and sspB. Activation of cells was achieved by imaging the mCherry and mGFP channels simultaneously using a 6-second frame interval for an area of 120×120 μm2 (1024×1024 pixels) at Nyquist zoom.
as §1
Actinomycin D dissolved in DMSO was used to treat G3BP KO cells expressing indicated Corelets at a concentration of 5 μg/mL. Images were taken 12-18 hours after actinomycin D treatment, a time interval during which nucleoli were no longer apparent by bright field observation and the vast majority of mRNA was expected to be degraded. Final concentration of DMSO was 0.5%. For Actinomycin D plus arsenite experiments, arsenite was added at a concentration of 400 μM˜12 hours following actinomycin D treatment and cells were imaged 1-2 hours subsequently. […] Time point was chosen to maximize the time since treatment (i.e. to reduce RNA cells by as much as possible) without extensive lethality from the drug.
In order to determine precise phase threshold boundaries for intracellular phase diagrams, analyzed cells must feature high variability with respect to sspB-mCherry and iLID-mGFP stoichiometries to sample sufficient core concentrations and valencies. In order to achieve a broad concentration range for both components, G3BP KO cells were transduced in 96-well plates (Cellvis) using an arrayed lentivirus approach. In this protocol, rows varied from 2 to 60 μL iLID-GFP-Fe lentivirus; columns, 2 to 60 μL mCherry-sspB-open reading frame (ORF)/ORF-mCherry-sspB lentivirus. G3BP KO cells were plated directly into the arrayed lentivirus to attain ˜25% confluency upon subsequent attachment to the plastic substrate.

[4] = system: G3BP KO cells; assay: Lethality of drug treatment in cultured cells (qualitative observation); settings: arsenite 400 μM; Actinomycin D 5 μg/mL
Procedure: as §1
Actinomycin D dissolved in DMSO was used to treat G3BP KO cells expressing indicated Corelets at a concentration of 5 μg/mL. Images were taken 12-18 hours after actinomycin D treatment, a time interval during which nucleoli were no longer apparent by bright field observation and the vast majority of mRNA was expected to be degraded. Final concentration of DMSO was 0.5%. For Actinomycin D plus arsenite experiments, arsenite was added at a concentration of 400 μM˜12 hours following actinomycin D treatment and cells were imaged 1-2 hours subsequently.

[5] = system: CAPRIN1 RGG Corelets; assay: CAPRIN1 RGG (RBD) Corelet phase separation after RNA depletion; format: cell-based, human; settings: RNA depletion by Actinomycin D
Text: High valence G3BP RBD nodes (but not dimeric bridges) are sufficient to induce stress granule formation following polysome disassembly, but it is unclear whether this is a unique feature of G3BP or common to RNA-binding nodes that interact with G3BP NTF2. We reasoned that if such NTF2-associated RBPs contribute essential, additive RNA-binding valence to the multi-protein complex, synthetic high valence nodes connected to individual RBDs would nucleate opto-SGs in isolation (i.e. mimic G3BP RBD Corelets). To test this, the RBDs of CAPRIN1 and UBAP2L were oligomerized utilizing the Corelet system, and mapped phase diagrams in both non-treated and arsenite-exposed cells. […] Further, condensate protein composition, P-body attachment, and relative phase thresholds are not determined by the type or number of RNA-binding motifs. […]
In order to determine precise phase threshold boundaries for intracellular phase diagrams, analyzed cells must feature high variability with respect to sspB-mCherry and iLID-mGFP stoichiometries to sample sufficient core concentrations and valencies. […] In this protocol, rows varied from 2 to 60 μL iLID-GFP-Fe lentivirus; columns, 2 to 60 μL mCherry-sspB-open reading frame (ORF)/ORF-mCherry-sspB lentivirus. […]

## G3BP: stress granule nucleating protein, fluorescently tagged, expressed in G3BP KO cells
[1]; G3BP KO U2OS cells, arsenite, read-out: G3BP concentration for rescue of stress granule formation
  EC50: 620 nM

## G3BP F33W: G3BP variant unable to bind USP10 or CAPRIN1
[1]
  rescue of stress granule formation in G3BP KO cells: rescues SG formation

## O=[As]O [arsenite, sodium arsenite]
[2]
  time by which SG number/size peaked: ≤ 45 min
[3]; at 0.15 μM Core, arsenite 400 μM, non-stressed cells need valence ~24
  valence required to drive condensation: ~8
[4]
  time after treatment at which cells began to die / treatment was lethal: ~6 h

## C[C@@H]1C[C@@H]([C@H](O)CC2CC(=O)NC(=O)C2)C(=O)[C@@H](C)C1 [cycloheximide]
[3]; arsenite and cycloheximide, FIG. 15C vs FIG. 15A
  calculated best-fit phase threshold: almost identical to that of nontreated cells
[3]; pre-treatment with cycloheximide 100 μg/mL 30 min, then arsenite 400 μM
  arsenite-driven shift in the opto-SG phase diagram: negated

## Cc1c2oc3c(C)ccc(C(=O)N[C@@H]4C(=O)N[C@H](C(C)C)C(=O)N5CCC[C@H]5C(=O)N(C)CC(=O)N(C)[C@@H](C(C)C)C(=O)O[C@@H]4C)c3nc-2c(C(=O)N[C@@H]2C(=O)N[C@H](C(C)C)C(=O)N3CCC[C@H]3C(=O)N(C)CC(=O)N(C)[C@@H](C(C)C)C(=O)O[C@@H]2C)c(N)c1=O [Actinomycin D] (I: T[dV]P[Sar][NMeV] / II: T[dV]P[Sar][NMeV]; ester I:1-I:C, II:1-II:C; linker I:N-II:N via Actinocin(9to1))
[3]; Actinomycin D 5 μg/mL, 12-18 hours, FIG. 15D
  formation of opto-SGs: prevents the formation of opto-SGs; also recorded: disrupts the formation of SGs
[4]
  time after treatment at which cells began to die / treatment was lethal: 30 to 36 h
[5]
  phase separation of CAPRIN1 RGG Corelets: abrogates phase separation

B1: CAPRIN1: NTF2-interacting RNA-binding stress granule protein (protein, UniProt Q14444 2-709, looked up)
Caprin-1: PSATSHSGSGSKSSGPPPPSGSSGSEAAAGAGAAAPASQHPATGTGAVQTEAMKQILGVIDKKLRNLEKKKGKLDDYQERMNKGERLNQDQLDAVSKYQEVTNNLEFAKELQRSFMALSQDIQKTIKKTARREQLMREEAEQKRLKTVLELQYVLDKLGDDEVRTDLKQGLNGVPILSEEELSLLDEFYKLVDPERDMSLRLNEQYEHASIHLWDLLEGKEKPVCGTTYKVLKEIVERVFQSNYFDSTHNHQNGLCEEEEAASAPAVEDQVPEAEPEPAEEYTEQSEVESTEYVNRQFMAETQFTSGEKEQVDEWTVETVEVVNSLQQQPQAASPSVPEPHSLTPVAQADPLVRRQRVQDLMAQMQGPYNFIQDSMLDFENQTLDPAIVSAQPMNPTQNMDMPQLVCPPVHSESRLAQPNQVPVQPEATQVPLVSSTSEGYTASQPLYQPSHATEQRPQKEPIDQIQATISLNTDQTTASSSLPAASQPQVFQAGTSKPLHSSGINVNAAPFQSMQTVFNMNAPVPPVNEPETLKQQNQYQASYNQSFSSQPHQVEQTELQQEQLQTVVGTYHGSPDQSHQVTGNHQQPPQQNTGFPRSNQPYYNSRGVSRGGSRGARGLMNGYRGPANGFRGGYDGYRPSFSNTPNSGYTQSQFSAPRDYSGYQRDGYQQNFKRGSGQSGPRGAPRGRGGPPRPNRGMPQMNTQQVN
[1]
  rescue of stress granule formation in G3BP KO cells: does not rescue
